Test results from PubChem BioAssay (NCI).
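Method: 48-hour compound exposure of cells in 96-well plates, five concentrations, linear interpolation of endpoints. Here, GI50 denotes the concentration required for 50% inhibition of growth. The concentration for full growth arrest is given as TGI.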

Key:
Test in all cases: inhibition of tumour cell growth, NCI panel, 48 h
UACC-62 melanoma = tested on: UACC-62 melanoma
TK-10 renal = tested on: TK-10 renal
U251 CNS = tested on: U251 CNS
HCC-2998 colon = tested on: HCC-2998 colon
HOP-62 NSCLC = tested on: HOP-62 NSCLC
NCI-H522 lung = tested on: NCI-H522 lung
NCI-H23 lung = tested on: NCI-H23 lung
LOX IMVI melanoma = tested on: LOX IMVI melanoma
HCT-116 colon = tested on: HCT-116 colon
DU-145 prostate = tested on: DU-145 prostate

Compound	TGI (UACC-62 melanoma)	TGI (TK-10 renal)	TGI (U251 CNS)	TGI (HCC-2998 colon)	TGI (HOP-62 NSCLC)	TGI (NCI-H522 lung)	TGI (NCI-H23 lung)	TGI (LOX IMVI melanoma)	TGI (HCT-116 colon)	GI50 (HCT-116 colon)	GI50 (UACC-62 melanoma)	GI50 (TK-10 renal)	GI50 (U251 CNS)	GI50 (HOP-62 NSCLC)	GI50 (NCI-H522 lung)	GI50 (DU-145 prostate)	TGI (DU-145 prostate)	GI50 (NCI-H23 lung)	GI50 (LOX IMVI melanoma)	GI50 (HCC-2998 colon)
CC(/C=C/C(=O)c1sc(C(N)=S)nc1C)=C\c1ccccc1	> 100 µM	> 100 µM	> 100 µM	> 100 µM	> 100 µM	> 100 µM	> 100 µM	40.2 µM												
CC1=NN(c2ccccc2)C(=O)C12[C@H](c1ccccc1)C2(C#N)C#N (some centres undefined)	12.4 µM	25 µM	29.6 µM	34.1 µM	31.1 µM	11.5 µM	11 µM	4.63 µM	12 µM											
CN1CCN=C1c1nnn(-c2ccc([N+](=O)[O-])cc2)c1-c1ccccc1	> 100 µM	> 100 µM	> 100 µM	> 100 µM	> 100 µM	> 100 µM	> 100 µM	> 100 µM	> 100 µM											
Cc1ccccc1-n1c(=S)[nH]c2c(sc(=O)n2-c2ccccc2C)c1=O	> 100 µM		> 100 µM	> 100 µM	> 100 µM	> 100 µM	> 100 µM		> 100 µM											
COc1ccc(NC(=O)CC(=O)N/N=C(\C)c2cc3ccccc3oc2=O)cc1	> 100 µM	> 100 µM	> 100 µM		> 100 µM	> 100 µM	> 100 µM	> 100 µM	> 100 µM											
CCCCC#Cc1c(I)n(C2OC(CO[Si](C)(C)C(C)(C)C)C3OC(C)(C)OC32)c(=O)n(C(=O)c2ccccc2)c1=O (centres undefined)	32.2 µM	3.19 µM	> 100 µM		23 µM	3.93 µM	27.3 µM	38.5 µM	2.74 µM	1.36 µM	17.7 µM	1.78 µM	3.25 µM	10.7 µM	1.84 µM	2.25 µM	4.68 µM	9.44 µM	5.54 µM	
COc1ccc(Br)c(CN2CCc3ccccc32)c1OS(=O)(=O)c1ccc(C)cc1				> 100 µM		30.8 µM	85.1 µM													
N#CC1=C(N)NC(N2CCOCC2)=NC12Nc1ccccc1O2 (centres undefined)	> 100 µM	> 100 µM	> 100 µM		51.3 µM	75 µM	> 100 µM	81 µM			53.9 µM	34 µM	45.8 µM	14 µM	23 µM	59.3 µM	> 100 µM	29.5 µM	23.7 µM	
COc1cc(Cl)c(CC(=O)c2c[nH]c3ccccc23)cc1OC	> 100 µM	> 74 µM	44.4 µM		28.7 µM		> 100 µM	> 100 µM	> 100 µM								> 100 µM			
O=C1OC(=O)C23CSCC12C1C=CC3O1 (centres undefined)	> 100 µM	> 100 µM	> 100 µM	> 100 µM	> 100 µM	> 100 µM	> 100 µM	> 100 µM	> 100 µM											
CC12OC(C(=O)C13CC3)C1C(=O)c3c(O)ccc(O)c3C(=O)C12 (centres undefined)		35.2 µM	31.1 µM	27.4 µM	60.5 µM	32 µM	31.1 µM		28.2 µM	14.3 µM		15.6 µM	14.7 µM	21.3 µM	16.1 µM			14.4 µM		11.9 µM
COc1ccc(N2C(=O)[C@@H](N=[N+]=[N-])[C@@H]2[C@H]2COC(C)(C)O2)cc1	> 100 µM		> 100 µM	> 100 µM	> 100 µM	> 100 µM	> 100 µM		> 100 µM											
CS(=O)(=O)c1ccc(COP(N)(=O)N(CCCl)CCCl)cc1 (centres undefined)	> 100 µM	> 100 µM	> 100 µM	> 100 µM	> 100 µM	> 100 µM	> 100 µM	> 100 µM	> 100 µM											
COc1cc(Cc2c(C)cc(OC)c3[nH]c4ccccc4c23)cc2c1[nH]c1ccccc12	> 25 µM	> 25 µM	9.84 µM	14.7 µM	11 µM	11.6 µM		8.6 µM	> 25 µM	9.18 µM	5.61 µM	12 µM	4.96 µM	5.49 µM	5.03 µM				3.85 µM	5.43 µM
CCC(C)(O)c1cn(-c2ccc(Cl)cc2)nn1 (centres undefined)	> 100 µM	> 100 µM	> 100 µM	> 100 µM	> 100 µM	> 100 µM	> 100 µM	> 100 µM	> 100 µM											
CCCCNS(=O)(=O)c1ccc(-c2ccc3c(c2)-c2ccc(S(=O)(=O)NCCCC)cc2S3(=O)=O)cc1	34.3 µM	83.2 µM	55.5 µM	> 100 µM	37.3 µM	66.2 µM	43 µM	38 µM	54.9 µM											
CC(=O)OCC1OC(n2c(=O)[nH]c(=O)c3n[nH]nc32)C(OC(C)=O)C(OC(C)=O)C1OC(C)=O (centres undefined)	> 100 µM	> 100 µM	> 100 µM	> 100 µM	> 100 µM	> 100 µM	> 100 µM	> 100 µM	> 100 µM											
O=C1CC(c2cccc(Cl)c2)Oc2ccccc21 (centres undefined)	29.8 µM		> 100 µM	35.7 µM	32.6 µM		24.3 µM	56.5 µM	31.3 µM								38.2 µM			
CCOC(=O)c1c(-c2ccccc2)[n+](=O)c2cc(F)c(F)cc2n1[O-]		32 µM	2.71 µM		3.24 µM	> 100 µM	3.13 µM	0.298 µM	0.584 µM	0.238 µM		16.6 µM	1.25 µM	1.42 µM	36.5 µM	1.78 µM	3.55 µM	1.42 µM	0.157 µM	
Cc1cc(=O)[nH]c(NNC(C#N)c2ccccc2O)n1 (centres undefined)	70.3 µM	> 100 µM	> 100 µM		99.8 µM	> 100 µM	> 100 µM	> 100 µM	> 100 µM											
CCCCCCC(=O)C/C(CCC(=O)N(Cc1ccccc1)Cc1ccccc1)=N\NC(N)=O	> 100 µM	> 100 µM	> 100 µM	> 100 µM	> 100 µM	> 100 µM	> 100 µM	> 100 µM	> 100 µM											
